# Values quoted from earlier work, collected in US8877241B2 (Egalet Ltd., priority 2003, dated 2014).
# Details: single dose of 10 mg oral morphine, plain tablet composition
smiles,measurement,value
CN1CC[C@]23c4c5ccc(O)c4O[C@H]2[C@@H](O)C=C[C@H]3[C@H]1C5 [morphine],average duration of action,4 to 5 h
